Experimental findings from patent publication US20230255205A1, “HERBICIDAL HETEROCYCLIC DERIVATIVES” (MoA Technology Limited, priority 2020, published 2023) are described below.

The term pest or weed control denotes how far the test organism was held down. Lower therefore signals a weak effect.

Experiment in all cases: Post-emergence herbicidal test, % visual injury
Format in all cases: in vivo
Holding throughout (details): 336 h, 14±1 days post application; for pest or weed control at 500 g/ha: rate 500 g/ha

Experiment [1] deals with Amaranthus retroflexus (AMARE). Here is the method: (§1) Seeds of a variety of test species are grown in a sandy loam soil mixture, Lolium multiflorum (LOLMU), Amaranthus retroflexus (AMARE), Echinochloa crus-galli (ECHCG), Veronica persica (VERPE).
(§2) After sowing, at growth stage BBCH 12-14 (post-emergence), the plants are sprayed with an aqueous spray solution derived from the formulation of the technical active ingredient in acetone/water (50:50) solution containing 0.5% Tween 20 (polyoxyethlyene sorbitan monolaureate, CAS RN 9005-64-5). The test compounds are applied at the required concentration of active ingredient in g/ha. The test plants are then grown in a glasshouse under controlled environmental conditions and watered regularly as required. After 14±1 days post application (for post-emergence test), the test is evaluated by assessing the percentage damage caused to the plants in comparison with the untreated plots. The biological activities for post-emergence testing are shown below (Table 3) as a % visual injury.

In experiment [2] the test system is Echinochloa crus-galli (ECHCG). Here is the method:
as §1, §2

Experiment [3] relates to Lolium multiflorum (LOLMU). Here is the method: as §1, §2
The test system of another experiment is Veronica persica (VERPE). As for the experimental part:
as §1, §2

As for `O=C(COc1ccc(F)cc1F)Nc1nnc(C(F)(F)F)[nH]1` [Compound 10, 2-(2,4-difluorophenoxy)-N-[5-(trifluoromethyl)-4H-1,2,4-triazol-3-yl]acetamide], the pest or weed control at 500 g/ha in experiment [1] stood at 40%; in experiment [2] it was 30%; in experiment [3], 0%; with Veronica persica (VERPE) it was 80%.
Take `O=C(COc1ccc(Cl)cc1Cl)Nc1nnc(C(F)(F)F)o1` [Compound 97]: the pest or weed control at 125 g/ha amounted to 100% in experiment [1] (rate 125 g/ha), 0% in experiment [2] (rate 125 g/ha), 0% in experiment [3] (rate 125 g/ha) and 100% in the experiment on Veronica persica (VERPE) (rate 125 g/ha).
As for `O=C(COc1ccc(F)cc1Cl)Nc1nnc(N2CCCC2)[nH]1` [Compound 6], the pest or weed control at 500 g/ha in experiment [1] amounted to 50%; in experiment [2], 20%; in experiment [3], 0%; with Veronica persica (VERPE) it was 50%.
For `O=C(COc1cccc(Br)c1)Nc1nnc(C(F)(F)F)[nH]1` [Compound 21], the pest or weed control at 500 g/ha was 0% in experiment [1], 0% in experiment [2], 20% in experiment [3] and 60% in the experiment with Veronica persica (VERPE).
`O=C(COc1cc(Cl)c(Cl)cc1Cl)Nc1nnc(C(F)(F)F)[nH]1` [Compound 39]: the pest or weed control at 500 g/ha was 80% in experiment [1], 0% in experiment [2], 0% in experiment [3] and 50% in the experiment with Veronica persica (VERPE).
Regarding `O=C(COc1ccccc1-n1cnnc1)Nc1nc(C(F)(F)F)n[nH]1` [Compound 92], the pest or weed control at 500 g/ha in experiment [1] came out at 0%; in experiment [2] it was 0%; in experiment [3], 0%; in the experiment on Veronica persica (VERPE) it was 70%.
For `O=C(COc1ccc(Cl)cc1Cl)Nc1nnc(-c2ccc(F)cc2)[nH]1` [Compound 96], the pest or weed control at 500 g/ha in experiment [1] was 90%; in experiment [2], 30%; in experiment [3], 0%; in the experiment with Veronica persica (VERPE), 90%.
As for `O=C(COc1ccc(Br)cc1F)Nc1nnc(C(F)(F)F)[nH]1` [Compound 17], the pest or weed control at 500 g/ha is 60% in experiment [1], 0% in experiment [2], 0% in experiment [3] and 70% in the experiment with Veronica persica (VERPE).
For `COc1nnc(NC(=O)COc2ccc(F)cc2Cl)[nH]1` [Compound 99], the pest or weed control at 250 g/ha in experiment [1] (rate 250 g/ha) worked out at 50%; in experiment [2] (rate 250 g/ha), 0%; in experiment [3] (rate 250 g/ha) it was 0%; in the experiment with Veronica persica (VERPE) (rate 250 g/ha) it was 50%.
For `O=C(COc1ccc(F)cc1Cl)Nc1nnc(-c2cccc3ccccc23)[nH]1` [Compound 101], the pest or weed control at 500 g/ha was 100% in experiment [1], 70% in experiment [2], 20% in experiment [3] and 80% with Veronica persica (VERPE).
On to `Cc1ccc(OCC(=O)Nc2nnc(C(F)(F)F)[nH]2)cc1` [Compound 20], for which the pest or weed control at 500 g/ha was found to be 0% in experiment [1], 30% in experiment [2], 0% in experiment [3] and 40% in the experiment on Veronica persica (VERPE).
Consider `O=C(COc1ccc(Cl)c(F)c1)Nc1nnc(C(F)(F)F)[nH]1` [Compound 16, 2-(4-chloro-3-fluorophenoxy)-N-[5-(trifluoromethyl)-4H-1,2,4-triazol-3-yl]acetamide], for which the pest or weed control at 500 g/ha was 100% in experiment [1], 20% in experiment [2], 0% in experiment [3] and 70% in the experiment on Veronica persica (VERPE).
On to `O=C(COc1ccc(F)cc1Cl)Nc1n[nH]c(C2CC2)n1` [Compound 1], for which the pest or weed control at 500 g/ha in experiment [1] turned out to be 100%; in experiment [2], 90%; in experiment [3], 40%; in the experiment on Veronica persica (VERPE), 60%.
Taken in the same sequence, the figures for `O=C(COc1ccc(F)cc1Cl)Nc1n[nH]c(C2CCC2)n1` [Compound 22] were 100%, 90%, 40% and 90%.
The like results for `Cn1ccc2c(OCC(=O)Nc3nc(C(F)(F)F)n[nH]3)cccc21` [Compound 91] were, in that order, 0%, 0%, 0% and 70%.
In the case of `CCC(Oc1ccccc1F)C(=O)Nc1nnc(C(F)(F)F)[nH]1` (stereo not shown) [Compound 19], the pest or weed control at 500 g/ha in experiment [1] stood at 0%; in experiment [2], 0%; in experiment [3] it was 0%; in the experiment on Veronica persica (VERPE), 20%.
`Cn1nc(C(F)(F)F)nc1NC(=O)COc1ccc(F)cc1Cl` [Compound 41, 2-(2-chloro-4-fluorophenoxy)-N-[1-methyl-3-(trifluoromethyl)-1H-1,2,4-triazol-5-yl]acetamide]: the pest or weed control at 500 g/ha in experiment [1] is 95%; in experiment [2], 60%; in experiment [3], 40%; with Veronica persica (VERPE), 70%.
Turning to `CCn1cnnc1NC(=O)COc1cccc(C(F)(F)F)c1` [Compound 102], the pest or weed control at 500 g/ha was 50% in experiment [1], 70% in experiment [2], 0% in experiment [3] and 7% in the experiment with Veronica persica (VERPE).
Consider `O=C(COc1cccc(C(F)(F)F)c1)Nc1nnc(C(F)(F)F)[nH]1` [Compound 4], for which the pest or weed control at 500 g/ha in experiment [1] stood at 99%; in experiment [2] it was 20%; in experiment [3], 0%; in the experiment with Veronica persica (VERPE) it was 80%.
`COCc1n[nH]c(NC(=O)COc2ccc(F)cc2Cl)n1` [Compound 3]: the pest or weed control at 500 g/ha came to 100% in experiment [1], 90% in experiment [2], 60% in experiment [3] and 90% in the experiment on Veronica persica (VERPE).
With `CC(C)(C)c1nc(NC(=O)COc2ccc(F)cc2Cl)n[nH]1` [Compound 7], the pest or weed control at 500 g/ha in experiment [1] is 60%; in experiment [2], 80%; in experiment [3] it was 40%; in the experiment on Veronica persica (VERPE) it was 60%.
In the case of `O=C(COc1nc(Cl)c(Cl)cc1Cl)Nc1nnc(C(F)(F)F)[nH]1` [Compound 37], the pest or weed control at 500 g/ha in experiment [1] stood at 80%; in experiment [2] it was 60%; in experiment [3], 5%; in the experiment with Veronica persica (VERPE) it was 30%.
Taken in the same sequence, the figures for `Cc1cccc(C)c1OCC(=O)Nc1nnc(C(F)(F)F)[nH]1` [Compound 100] were 0%, 0%, 0% and 20%.
For the compound `CN(C(=O)COc1ccc(F)cc1Cl)c1nc(C(F)(F)F)nn1C` [Compound 42, 2-(2-chloro-4-fluorophenoxy)-N-methyl-N-[1-methyl-3-(trifluoromethyl)-1H-1,2,4-triazol-5-yl]acetamide], the pest or weed control at 500 g/ha was found to be 90% in experiment [1], 60% in experiment [2], 40% in experiment [3] and 60% in the experiment with Veronica persica (VERPE).
In the case of `CC(C)c1nnc(NC(=O)COc2ccc(F)cc2Cl)[nH]1` [Compound 23, 2-(2-chloro-4-fluorophenoxy)-N-[5-(propan-2-yl)-4H-1,2,4-triazol-3-yl]acetamide], the pest or weed control at 500 g/ha in experiment [1] stood at 100%; in experiment [2], 90%; in experiment [3] it was 40%; in the experiment on Veronica persica (VERPE) it was 100%.
For `CN(C)c1n[nH]c(NC(=O)COc2ccc(F)cc2Cl)n1` [Compound 24], the pest or weed control at 500 g/ha in experiment [1] came to 70%; in experiment [2], 70%; in experiment [3], 0%; with Veronica persica (VERPE), 50%.
For the compound `Cc1ccc(OCC(=O)Nc2nnc(C(F)(F)F)[nH]2)c(Br)c1` [Compound 15], the pest or weed control at 500 g/ha was determined as 0% in experiment [1], 0% in experiment [2], 0% in experiment [3] and 50% with Veronica persica (VERPE).
As to `Cc1cccc(Cl)c1OCC(=O)Nc1nnc(C(F)(F)F)[nH]1` [Compound 18], the pest or weed control at 500 g/ha in experiment [1] stood at 0%; in experiment [2], 0%; in experiment [3], 0%; in the experiment on Veronica persica (VERPE), 70%.
In the case of `CCC(Oc1ccccc1Cl)C(=O)Nc1nnc(C(F)(F)F)[nH]1` (stereo not shown) [Compound 12], the pest or weed control at 500 g/ha was determined as 70% in experiment [1], 10% in experiment [2], 0% in experiment [3] and 60% in the experiment with Veronica persica (VERPE).
Regarding `Nc1c(Cl)c(F)nc(OCC(=O)Nc2nnc(C(F)(F)F)[nH]2)c1Cl` [Compound 38], the pest or weed control at 500 g/ha in experiment [1] was 100%; in experiment [2], 0%; in experiment [3], 30%; with Veronica persica (VERPE), 98%.
`Cc1ccccc1OCCCC(=O)Nc1nnc(C(F)(F)F)[nH]1` [Compound 89]: the pest or weed control at 500 g/ha in experiment [1] amounted to 40%; in experiment [2], 0%; in experiment [3] it was 0%; in the experiment with Veronica persica (VERPE) it was 95%.
